Tests used:
HDAC2 = target: T1, HDAC2 (Homo sapiens, UniProt Q92769); test: HDAC2 enzymatic inhibition assay in SH-SY5Y cell lysate with an exogenous substrate (HDAC-Glo 2); format: cell-based; conditions: SH-SY5Y cells
T1 construct: host or cells: SH-SY5Y cells
Procedure: HDAC2 Enzymatic Inhibition Assay in SH-SY5Y Cell Lysate with an Exogenous Substrate
SH-SY5Y cells (Sigma) were cultured in Eagle's Modified Essential Medium supplemented with 10% fetal bovine serum and pen/strep. Twenty-four hours prior to compound dosing 20 uL of cells were plated in white 384 well plates at a density of 1,500 cells/well. Compounds were serially diluted in neat DMSO and then diluted 1:100 v/v into media without FBS and mixed. Media was removed from the plated cells and the diluted compounds in serum free media (1% v/v final DMSO) were added and incubated at 37.0 for five hours. Ten uL of HDAC-Glo 2 reagent with 0.1% Triton X-100 was then added, the plate was mixed and allowed to develop at room temperature for 100 minutes. Plates were then read with a Spectramax LMax luminometer employing a 0.4 s integration time. Dose response curves were constructed with normalized data where CI-994 at 100 uM was defined as 100% inhibition and DMSO alone as 0% inhibition.
In the table, “A” indicates a IC50 value of less than 0.5 μM; “B” a IC50 value from 0.5 μM to 1.0 μM; “C” a IC50 value of greater than 1.0 μM and less than or equal to 2.0 μM; and “D” indicates an IC50 value of greater than 2.0 μM. NT=Not Tested.

Full length Human HDAC2 = target: T2, Full length Human HDAC2 (Homo sapiens, UniProt Q92769); test: HDAC2 enzymatic assay (deacetylation of FAM-labeled peptide substrate, microfluidic electrophoresis); format: biochemical; conditions: 1 uM substrate peptide
T2 construct: Full length Human HDAC2 with; FLAG (C); host or cells: baculovirus expression system
Procedure: (§1) HDAC2 and HDAC1 Enzymatic Assay (HDAC2 and HDAC1 IC50 Data)
(§2) The following describes an assay protocol for measuring the deacetylation of a peptide substrate by HDAC2 or HDAC1.
(§3) HDAC protein composition and respective substrate peptides are summarized below.
(§4) HDAC reactions are assembled in 384 well plates (Greiner) in a total volume of 20 µL as following:
(§5) HDAC proteins are pre-diluted in the assay buffer comprising: 100 mM HEPES, pH 7.5, 0.1% BSA, 0.01% Triton X-100, 25 mM KCl and dispensed into 384 well plate (10 uL per well).
(§6) Test compounds are serially pre-diluted in DMSO and added to the protein samples by acoustic dispensing (Labcyte Echo). Concentration of DMSO is equalized to 1% in all samples.
(§7) Control samples (0%-inhibition in the absence of inhibitor, DMSO only) and 100%-inhibition (in the absence of enzyme) are assembled in replicates of four and used to calculate the %-inhibition in the presence of compounds.
(§8) At this step compounds can be pre-incubated with enzyme if desired.
(§9) The reactions are initiated by addition of 10 uL of the FAM-labeled substrate peptide pre-diluted in the same assay buffer. Final concentration of substrate peptide is 1 uM (HDAC1-2). The reactions are allowed to proceed at room temperature. Following incubation, the reactions are quenched by addition of 50 µL of termination buffer (100 mM HEPES, pH7.5, 0.01% Triton X-100, 0.1% SDS). Terminated plates are analyzed on a microfluidic electrophoresis instrument (Caliper LabChip® 3000, Caliper Life Sciences/Perkin Elmer) which enables electrophoretic separation of de-acetylated product from acetylated substrate. A change in the relative intensity of the peptide substrate and product is the parameter measured. Activity in each test sample is determined as the product to sum ratio (PSR): P/(S+P), where P is the peak height of the product, and S is the peak height of the substrate. Percent inhibition (Pinh) is determined using the following equation: Pinh=(PSR0% inh−PSRcompound)/(PSR0% inh−PSR100% inh)*100, in which: PSRcompound is the product/sum ratio in the presence of compound, PSR0% inh is the product/sum ratio in the absence of compound and the PSR100% inh is the product/sum ratio in the absence of the enzyme. To determine IC50 of compounds (50%-inhibition) the %-inh data (Pinh versus compound concentration) are fit by a 4 parameter sigmoid dose-response model using XLfit software (IDBS).
(§10) In the table, “A” indicates a IC50 value of less than 0.5 “B” a IC50 value from 0.5 μM to 1.0 μM; “C” a IC50 value of greater than 1.0 μM and less than or equal to 2.0 μM; and “D” indicates an IC50 value of greater than 2.0 NT=Not Tested.

Full length Human HDAC1 = target: T3, Full length Human HDAC1 (Homo sapiens, UniProt Q13547); test: HDAC1 enzymatic assay (deacetylation of FAM-labeled peptide substrate, microfluidic electrophoresis); format: biochemical; conditions: 1 uM substrate peptide
T3 construct: Full length Human HDAC1 with; His (C); FLAG (C); host or cells: baculovirus expression system
Procedure: as §1, §2, §3, §4, §5, §6, §7, §8, §9, §10

[1] = five hours incubation, HDAC-Glo 2 reagent, class symbols
[2] = HDAC-Glo 2, numeric values, Table 4

T2 sequence (Q92769 whole entry): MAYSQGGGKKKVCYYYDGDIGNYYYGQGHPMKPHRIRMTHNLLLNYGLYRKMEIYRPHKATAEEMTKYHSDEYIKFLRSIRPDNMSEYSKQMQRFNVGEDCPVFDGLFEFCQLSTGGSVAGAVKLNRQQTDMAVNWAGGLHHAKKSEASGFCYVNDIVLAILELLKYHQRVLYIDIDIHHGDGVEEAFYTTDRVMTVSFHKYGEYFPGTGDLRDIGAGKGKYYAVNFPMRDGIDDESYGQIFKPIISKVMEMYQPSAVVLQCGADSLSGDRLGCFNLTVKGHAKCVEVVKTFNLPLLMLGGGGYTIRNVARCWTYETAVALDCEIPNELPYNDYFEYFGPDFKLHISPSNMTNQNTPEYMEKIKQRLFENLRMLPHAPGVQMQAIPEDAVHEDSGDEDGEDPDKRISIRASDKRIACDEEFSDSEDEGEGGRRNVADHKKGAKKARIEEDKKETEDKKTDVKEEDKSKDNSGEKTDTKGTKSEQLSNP
T1 sequence (Q92769 whole entry): as above
T3 sequence (Q13547 whole entry): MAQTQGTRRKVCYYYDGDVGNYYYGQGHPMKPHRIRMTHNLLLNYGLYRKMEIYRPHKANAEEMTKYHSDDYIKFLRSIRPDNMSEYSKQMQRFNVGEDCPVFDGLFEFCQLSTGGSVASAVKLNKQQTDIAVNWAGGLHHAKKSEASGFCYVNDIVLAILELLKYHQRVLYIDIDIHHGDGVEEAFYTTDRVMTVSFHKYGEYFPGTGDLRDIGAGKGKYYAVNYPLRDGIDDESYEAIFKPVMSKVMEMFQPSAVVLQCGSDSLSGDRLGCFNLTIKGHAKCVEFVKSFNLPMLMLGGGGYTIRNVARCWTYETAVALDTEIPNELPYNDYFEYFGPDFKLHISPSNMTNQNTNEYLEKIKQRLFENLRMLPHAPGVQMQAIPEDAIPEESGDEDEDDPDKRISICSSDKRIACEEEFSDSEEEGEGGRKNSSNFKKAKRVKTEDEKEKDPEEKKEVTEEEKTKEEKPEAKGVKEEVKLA

SMILES	IC50 (HDAC2; [1])	IC50 (Full length Human HDAC2)	IC50 (Full length Human HDAC1)	IC50 (HDAC2; [2])
COCc1cccc(C2CCN(C(=O)Nc3nc(-c4ccc(F)cc4F)ccc3N)C2)n1 (centres unmarked) [Compound 12]	> 2000 nM			
Nc1ccc(-c2ccc(F)cc2F)nc1NC(=O)N1CCC(c2ncccn2)C1 (single isomer, unassigned) [Compound 8E1]		< 500 nM	< 500 nM	
Nc1ccc(-c2ccc(F)cc2)nc1NC(=O)N1CCC(F)(c2ncccn2)C1 (single isomer, unassigned) [Compound 55]	500 to 1000 nM	< 500 nM	< 500 nM	
Cc1ccc(CC2CCN(C(=O)Nc3nc(-c4ccc(F)cc4F)ccc3N)C2)nn1 (centres unmarked) [Compound 28]	1000 to 2000 nM			
Nc1ccc(-c2ccc(F)cc2F)nc1NC(=O)N1CCC(Oc2ncccn2)C1 (centres unmarked) [Compound 23]	> 2000 nM	> 2000 nM	> 2000 nM	
Nc1ccc(-c2ccc(F)cc2F)nc1NC(=O)N1CCC(c2ncccn2)C1 (single isomer, unassigned) [Compound 8E2]		1000 to 2000 nM	1000 to 2000 nM	
Nc1ccc(-c2ccc(F)cc2F)nc1NC(=O)N1CCC(Cc2ncccn2)C1 (centres unmarked) [Compound 24]	1000 to 2000 nM	1000 to 2000 nM	1000 to 2000 nM	1420 nM
Nc1ccc(-c2ccc(F)cc2)nc1NC(=O)N1CCC(c2ncccn2)C1 (single isomer, unassigned) [Compound 19E1]	1000 to 2000 nM	< 500 nM	500 to 1000 nM	
Nc1ccc(-c2ccc(F)cc2)nc1NC(=O)N1CCC(c2ncc(F)cn2)C1 (single isomer, unassigned) [Compound 20E1]	1000 to 2000 nM	500 to 1000 nM	500 to 1000 nM	
Nc1ccc(-c2ccc(F)s2)nc1NC(=O)N1CCC(c2ncccn2)C1 (single isomer, unassigned) [Compound 40]	500 to 1000 nM	< 500 nM	< 500 nM	
Nc1ccc(-c2ccc(F)cc2)nc1NC(=O)N1CCC(F)(c2ncc(F)cn2)C1 (single isomer, unassigned) [Compound 53]	500 to 1000 nM	500 to 1000 nM	< 500 nM	
Nc1ccc(-c2ccc(F)cc2F)nc1NC(=O)N1CCC(c2cccnc2)C1 (centres unmarked) [Compound 2]	> 2000 nM	> 2000 nM	1000 to 2000 nM	
Nc1ccc(-c2ccc(F)cc2F)nc1NC(=O)N1CCC(c2ccccn2)C1 (centres unmarked) [Compound 1]	> 2000 nM	1000 to 2000 nM	500 to 1000 nM	
Nc1ccc(-c2ccc(F)s2)nc1NC(=O)N1CCC(c2ncccn2)C1 (single isomer, unassigned) [Compound 39]	> 2000 nM	1000 to 2000 nM	1000 to 2000 nM	
Cc1ccnc(CC2CCN(C(=O)Nc3nc(-c4ccc(F)cc4F)ccc3N)C2)n1 (centres unmarked) [Compound 27]	1000 to 2000 nM			
Nc1ccc(-c2ccc(F)cc2)nc1NC(=O)N1CCC(F)(c2ncc(F)cn2)C1 (single isomer, unassigned) [Compound 52]	> 2000 nM	1000 to 2000 nM	500 to 1000 nM	
Cc1cc(C2CCN(C(=O)Nc3nc(-c4ccc(F)cc4F)ccc3N)C2)nc(C)n1 (centres unmarked) [Compound 13]	> 2000 nM			
Nc1ccc(-c2ccc(F)cc2F)nc1NC(=O)N1CCC(c2ncc(F)cn2)C1 (centres unmarked) [Compound 14]	1000 to 2000 nM	500 to 1000 nM	500 to 1000 nM	
Nc1ccc(-c2ccc(F)cc2F)nc1NC(=O)N1CCC(c2ncccn2)C1 (racemic) [Compound 7]	500 to 1000 nM	500 to 1000 nM	< 500 nM	
Cc1nccc(C2CCN(C(=O)Nc3nc(-c4ccc(F)cc4F)ccc3N)C2)n1 (centres unmarked) [Compound 15]	> 2000 nM			

SMILES	IC50 (HDAC2; [1])	IC50 (Full length Human HDAC2)	IC50 (Full length Human HDAC1)	IC50 (HDAC2; [2])
Cc1cnc(C2CCN(C(=O)Nc3nc(-c4ccc(F)cc4F)ccc3N)C2)nc1 (centres unmarked) [Compound 33]	> 2000 nM			
Nc1ccc(-c2ccc(F)cc2)nc1NC(=O)N1CCC(F)(c2ncccn2)C1 (single isomer, unassigned) [Compound 54]	1000 to 2000 nM	500 to 1000 nM	500 to 1000 nM	
COCC1CCN(C(=O)Nc2nc(-c3ccc(F)cc3)ccc2N)C1 (centres unmarked) [Comparator E, reference compound]				> 100000 nM
Cc1nnc(C2CCN(C(=O)Nc3nc(-c4ccc(F)cc4F)ccc3N)C2)s1 (centres unmarked) [Compound 32]	1000 to 2000 nM			
Nc1ccc(-c2ccc(F)cc2F)nc1NC(=O)N1CCC(Cn2cccn2)C1 (centres unmarked) [Compound 35]	> 2000 nM			
Cc1cnc(CC2CCN(C(=O)Nc3nc(-c4ccc(F)cc4F)ccc3N)C2)o1 (centres unmarked) [Compound 47]	> 2000 nM			
Nc1ccc(-c2ccc(Cl)s2)nc1NC(=O)N1CCC(c2ncccn2)C1 (centres unmarked) [Compound 42]	> 2000 nM			
Nc1ccc(-c2ccc(F)cc2)nc1NC(=O)N1CCC(F)(F)C1 [Comparator B, reference compound]				14000 nM
Nc1ccc(-c2ccc(F)cc2)nc1NC(=O)N1CCCC1 [Comparator A, reference compound]				2640 nM
Cc1ccc(C2CCN(C(=O)Nc3nc(-c4ccc(F)cc4F)ccc3N)C2)cn1 (centres unmarked) [Compound 11]	> 2000 nM			
Nc1ccc(-c2ccc(F)cc2F)nc1NC(=O)N1CC[C@H](Oc2cccnc2)C1 [Compound 6]	> 2000 nM			
Cc1cncc(C2CCN(C(=O)Nc3nc(-c4ccc(F)cc4F)ccc3N)C2)n1 (centres unmarked) [Compound 17]	1000 to 2000 nM			
Nc1ccc(-c2ccc(F)cc2F)nc1NC(=O)N1CCC(c2cnc(C(F)F)cn2)C1 (centres unmarked) [Compound 37]	> 2000 nM			
Nc1ccc(-c2ccc(F)cc2)nc1NC(=O)N1CCC(C(F)(F)F)C1 (centres unmarked) [Comparator C, reference compound]				6360 nM
Nc1ccc(-c2ccc(F)cc2F)nc1NC(=O)N1CCC(Cn2ccnc2)C1 (centres unmarked) [Compound 34]	> 2000 nM			
Nc1ccc(-c2ccc(F)cc2F)nc1NC(=O)N1CC[C@@H](Oc2cccnc2)C1 [Compound 5]	> 2000 nM			
Cc1cnc(C2CCN(C(=O)Nc3nc(-c4ccc(F)cc4F)ccc3N)C2)s1 (centres unmarked) [Compound 30]	> 2000 nM			
Nc1ccc(-c2ccc(F)cc2F)nc1NC(=O)N1CCC(Oc2cccnn2)C1 (centres unmarked) [Compound 22]	> 2000 nM			
Nc1ccc(-c2ccc(F)cc2F)nc1NC(=O)N1CCC(Cc2cccnc2)C1 (centres unmarked) [Compound 31]	> 2000 nM			
Cc1cc(C)nc(C2CCN(C(=O)Nc3nc(-c4ccc(F)cc4F)ccc3N)C2)n1 (centres unmarked) [Compound 16]	> 2000 nM			

From patent publication US20210276978A1, “INHIBITORS OF HISTONE DEACETYLASE” (Alkermes, Inc., priority 2018, published 2021)
